Results on 10 compounds are retold here after ChEMBL document CHEMBL1143950, “Antifungal and cytotoxic activities of some N-substituted aniline derivatives bearing a hetaryl fragment” (Bioorg Med Chem, 2008).

In brackets after ≈: the same amount, converted by molar mass.

What is called MIC is the smallest concentration in the dilution series that meets the test's criterion for growth inhibition. Read a high MIC as a need for much substance. As usually defined, the IC50 is the point on the concentration scale where inhibition reaches its midpoint.

For one experiment, the system named is Candida albicans. In words: Antifungal activity against Candida albicans ATCC 10231 by micro-broth dilution method. It counts as functional. For orientation: In broth dilution the organism is exposed to a series of concentrations in liquid medium.
The test system of a further experiment is Saccharomyces cerevisiae. Kind of experiment: Antifungal activity against Saccharomyces cerevisiae ATCC 9763 by microbroth dilution method. It counts as functional.
The next experiment relates to Aspergillus niger. Kind of experiment: Antifungal activity against Aspergillus niger ATCC 9029 by micro-broth dilution method. It is filed as functional.
Experiment [1] relates to Trichophyton mentagrophytes. Kind of experiment: Antifungal activity against Trichophyton mentagrophytes ATCC 9972 by micro-broth dilution method. It is filed as functional.
The next experiment relates to Aspergillus flavus. In words: Antifungal activity against Aspergillus flavus ATCC 9170 by micro-broth dilution method. It counts as functional.
The test system of the next experiment is Trichophyton rubrum. In words: Antifungal activity against Trichophyton rubrum C113 by microbroth dilution method. It counts as functional.
The subject of the next experiment is Aspergillus fumigatus. Kind of experiment: Antifungal activity against Aspergillus fumigatus ATCC 26934 by micro-broth dilution method. It counts as functional.
The subject of experiment [2] is Cryptococcus neoformans. Kind of experiment: Antifungal activity against Cryptococcus neoformans ATCC 32264 by microbroth dilution method. It counts as functional.
The test system of a further experiment is Nannizzia gypsea. Kind of experiment: Antifungal activity against Microsporum gypseum C115 by microbroth dilution method. It counts as functional.
The next experiment deals with Candida tropicalis. Kind of experiment: Antifungal activity against Candida tropicalis C131 by micro-broth dilution method. It is filed as functional.
In experiment [3] the test system is Cryptococcus neoformans. In words: Antifungal activity against Cryptococcus neoformans IM 983036 by micro-broth dilution method. It is filed as functional.
The test system of another experiment is NCI-H460. In words: Cytotoxicity against human H460 cells by SRB assay. It is filed as functional, cell-based. For orientation: Sulforhodamine B stains cellular protein and so reports cell mass.
In experiment [4] the test system is Cryptococcus neoformans. In words: Antifungal activity against Cryptococcus neoformans IM 983040 by micro-broth dilution method. It counts as functional.
For experiment [5], the system named is Cryptococcus neoformans. In words: Antifungal activity against Cryptococcus neoformans IM 042074 by micro-broth dilution method. It is filed as functional.
The subject of experiment [6] is Cryptococcus neoformans. In words: Antifungal activity against Cryptococcus neoformans IM 031706 by micro-broth dilution method. It is filed as functional.
Experiment [7] concerns Cryptococcus neoformans. Kind of experiment: Antifungal activity against Cryptococcus neoformans IM 00319 by microbroth dilution method. It is filed as functional.
Experiment [8] concerns Cryptococcus neoformans. Kind of experiment: Antifungal activity against Cryptococcus neoformans IM 972724 by micro-broth dilution method. It counts as functional.
Experiment [9] relates to Cryptococcus neoformans. In words: Antifungal activity against Cryptococcus neoformans IM 031631 by micro-broth dilution method. It counts as functional.
The next experiment relates to MCF7. Kind of experiment: Cytotoxicity against human MCF7 cells by SRB assay. It counts as functional, cell-based.
The subject of experiment [10] is Cryptococcus neoformans. In words: Antifungal activity against Cryptococcus neoformans IM 961951 by micro-broth dilution method. It is filed as functional.
Another experiment relates to SF-268. In words: Cytotoxicity against human SF268 cells by SRB assay. It is filed as functional, cell-based.
The subject of experiment [11] is Cryptococcus neoformans. In words: Antifungal activity against Cryptococcus neoformans IM 972751 by microbroth dilution method. It is filed as functional.

As for `Cc1cc(C)cc(NCc2ccncc2)c1`, the MIC turned out to be 250 µg/mL (≈ 1180 µM) with Candida albicans; 250 µg/mL (≈ 1180 µM) with Saccharomyces cerevisiae; 100 µg/mL (≈ 471 µM) against Aspergillus niger; 25 µg/mL (≈ 118 µM) in experiment [1]; 200 µg/mL (≈ 942 µM) in the experiment on Aspergillus flavus; 25 µg/mL (≈ 118 µM) in the experiment with Trichophyton rubrum. The minimal inhibitory concentration (MIC) in the experiment with Aspergillus fumigatus came out at 100 µg/mL (≈ 471 µM); against Cryptococcus neoformans [2], 50 µg/mL (≈ 236 µM); in the experiment on Nannizzia gypsea, 25 µg/mL (≈ 118 µM); in the experiment on Candida tropicalis, 250 µg/mL (≈ 1180 µM).
In the case of `Clc1ccc(NCc2ccco2)cc1Cl`, the MIC in the experiment on Candida albicans stood at 62.5 µg/mL (≈ 258 µM); against Cryptococcus neoformans [3] it was 25 µg/mL (≈ 103 µM); against Saccharomyces cerevisiae, 50 µg/mL (≈ 207 µM); against Aspergillus niger, 62.5 µg/mL (≈ 258 µM); in [1], 12.5 µg/mL (≈ 51.6 µM); against Cryptococcus neoformans [4], 100 µg/mL (≈ 413 µM). In addition, the minimal inhibitory concentration (MIC) in the experiment with Aspergillus flavus stood at 50 µg/mL (≈ 207 µM); against Trichophyton rubrum it was 3.12 µg/mL (≈ 12.9 µM); in the experiment on Aspergillus fumigatus, 50 µg/mL (≈ 207 µM); against Cryptococcus neoformans [5], 25 µg/mL (≈ 103 µM); in the experiment with Cryptococcus neoformans [6], 100 µg/mL (≈ 413 µM); against Cryptococcus neoformans [7], 100 µg/mL (≈ 413 µM). Further, the minimal inhibitory concentration (MIC) came to 25 µg/mL (≈ 103 µM) in the experiment with Cryptococcus neoformans [2]; 25 µg/mL (≈ 103 µM) against Cryptococcus neoformans [8]; 6.25 µg/mL (≈ 25.8 µM) with Nannizzia gypsea; 100 µg/mL (≈ 413 µM) against Cryptococcus neoformans [9]; 100 µg/mL (≈ 413 µM) in the experiment with Cryptococcus neoformans [10]; 62.5 µg/mL (≈ 258 µM) in the experiment with Candida tropicalis. In the experiment with Cryptococcus neoformans [11], this compound came in with a minimum inhibitory concentration (MIC) of 100 µg/mL (≈ 413 µM). Besides, the IC50 in the experiment with NCI-H460 worked out at 8.7 µg/mL (≈ 35.9 µM); in the experiment with MCF7, 8 µg/mL (≈ 33 µM); with SF-268, 8.2 µg/mL (≈ 33.9 µM).
Turning to `Brc1ccc(NCc2ccco2)cc1`, the MIC came out at 62.5 µg/mL (≈ 248 µM) with Candida albicans; 50 µg/mL (≈ 198 µM) against Saccharomyces cerevisiae; 62.5 µg/mL (≈ 248 µM) in the experiment with Aspergillus niger; 12.5 µg/mL (≈ 49.6 µM) in experiment [1]; 50 µg/mL (≈ 198 µM) with Aspergillus flavus; 3.12 µg/mL (≈ 12.4 µM) against Trichophyton rubrum. Moreover, the MIC against Aspergillus fumigatus was 50 µg/mL (≈ 198 µM); in the experiment with Cryptococcus neoformans [2], 50 µg/mL (≈ 198 µM); against Nannizzia gypsea it was 6.25 µg/mL (≈ 24.8 µM); with Candida tropicalis it was 75 µg/mL (≈ 297 µM).
With `Cc1ccc(NCc2ccncc2)cc1`, the minimum inhibitory concentration (MIC) was determined as 100 µg/mL (≈ 504 µM) against Candida albicans; 100 µg/mL (≈ 504 µM) with Saccharomyces cerevisiae; 100 µg/mL (≈ 504 µM) against Aspergillus niger; 25 µg/mL (≈ 126 µM) in [1]; 200 µg/mL (≈ 1010 µM) against Aspergillus flavus; 25 µg/mL (≈ 126 µM) in the experiment on Trichophyton rubrum. Further, the minimum inhibitory concentration (MIC) against Aspergillus fumigatus was found to be 100 µg/mL (≈ 504 µM); in the experiment with Cryptococcus neoformans [2], 50 µg/mL (≈ 252 µM); in the experiment on Nannizzia gypsea, 50 µg/mL (≈ 252 µM); against Candida tropicalis it was 50 µg/mL (≈ 252 µM).
Regarding `COc1cccc2c1C(=O)c1c(O)c3c(c(O)c1C2=O)C[C@@](O)(C(=O)CO)C[C@@H]3O[C@H]1C[C@H](N)[C@H](O)[C@H](C)O1` [DOXORUBICIN], the half-maximal inhibitory concentration (IC50) in the experiment on NCI-H460 was found to be 0.18 µg/mL (≈ 0.331 µM); with SF-268, 0.14 µg/mL (≈ 0.258 µM).
As to `OC(Cn1cncn1)(Cn1cncn1)c1ccc(F)cc1F` [FLUCONAZOLE], the MIC was determined as 15.6 µg/mL (≈ 50.9 µM) in the experiment on Cryptococcus neoformans [3]; 7.8 µg/mL (≈ 25.5 µM) against Cryptococcus neoformans [4]; 3.9 µg/mL (≈ 12.7 µM) in the experiment on Cryptococcus neoformans [5]; 3.9 µg/mL (≈ 12.7 µM) with Cryptococcus neoformans [6]; 1.9 µg/mL (≈ 6.2 µM) in the experiment with Cryptococcus neoformans [7]; 3.9 µg/mL (≈ 12.7 µM) against Cryptococcus neoformans [8]. Also, the values for the MIC in the experiment on Cryptococcus neoformans [9], against Cryptococcus neoformans [10] and with Cryptococcus neoformans [11] were 31.2 µg/mL (≈ 102 µM), 7.8 µg/mL (≈ 25.5 µM) and 31.2 µg/mL (≈ 102 µM), respectively.
For `Nc1nc(=O)[nH]cc1F` [FLUCYTOSINE], the MIC worked out at 7.8 µg/mL (≈ 60.4 µM) against Cryptococcus neoformans [4]; 3.9 µg/mL (≈ 30.2 µM) in the experiment on Cryptococcus neoformans [5]; 3.9 µg/mL (≈ 30.2 µM) with Cryptococcus neoformans [6]; 15.6 µg/mL (≈ 121 µM) with Cryptococcus neoformans [7]; 3.9 µg/mL (≈ 30.2 µM) against Cryptococcus neoformans [8]; 7.8 µg/mL (≈ 60.4 µM) against Cryptococcus neoformans [9]. Besides, the MIC with Cryptococcus neoformans [10] and against Cryptococcus neoformans [11] was 7.8 µg/mL (≈ 60.4 µM) in each case.
On to `CCC(C)n1ncn(-c2ccc(N3CCN(c4ccc(OCC5COC(Cn6cncn6)(c6ccc(Cl)cc6Cl)O5)cc4)CC3)cc2)c1=O` (centres undefined) [ITRACONAZOLE], for which the MIC was < 0.015 µg/mL in the experiment with Cryptococcus neoformans [3]; < 0.015 µg/mL with Cryptococcus neoformans [4]; < 0.015 µg/mL against Cryptococcus neoformans [5]; < 0.015 µg/mL in the experiment with Cryptococcus neoformans [6]; < 0.015 µg/mL with Cryptococcus neoformans [7]; 0.25 µg/mL (≈ 0.354 µM) with Cryptococcus neoformans [8]. The minimum inhibitory concentration (MIC) against Cryptococcus neoformans [9] is 0.5 µg/mL (≈ 0.709 µM); against Cryptococcus neoformans [10] it was < 0.015 µg/mL; in the experiment on Cryptococcus neoformans [11], 0.25 µg/mL (≈ 0.354 µM).
On to `CC(=O)N1CCN(c2ccc(OC[C@H]3CO[C@](Cn4ccnc4)(c4ccc(Cl)cc4Cl)O3)cc2)CC1` [KETOCONAZOLE], for which the MIC in the experiment with Candida albicans is 0.5 µg/mL (≈ 0.941 µM); in the experiment on Saccharomyces cerevisiae it was 0.5 µg/mL (≈ 0.941 µM); in the experiment on Aspergillus niger it was 0.25 µg/mL (≈ 0.47 µM); in experiment [1], 0.025 µg/mL (≈ 0.047 µM); against Aspergillus flavus it was 0.5 µg/mL (≈ 0.941 µM); in the experiment with Trichophyton rubrum, 0.025 µg/mL (≈ 0.047 µM). The MIC against Aspergillus fumigatus worked out at 0.125 µg/mL (≈ 0.235 µM); in the experiment on Cryptococcus neoformans [2], 0.25 µg/mL (≈ 0.47 µM); with Nannizzia gypsea it was 0.05 µg/mL (≈ 0.0941 µM); in the experiment on Candida tropicalis, 0.125 µg/mL (≈ 0.235 µM).
Take `C[C@@H](c1ncncc1F)[C@](O)(Cn1cncn1)c1ccc(F)cc1F` [VORICONAZOLE]: the minimum inhibitory concentration (MIC) with Cryptococcus neoformans [3] was < 0.015 µg/mL; in the experiment with Cryptococcus neoformans [4] it was < 0.015 µg/mL; against Cryptococcus neoformans [5] it was < 0.015 µg/mL; in the experiment on Cryptococcus neoformans [6], 0.015 µg/mL (≈ 0.0429 µM); in the experiment on Cryptococcus neoformans [7], 0.03 µg/mL (≈ 0.0859 µM); in the experiment with Cryptococcus neoformans [8] it was < 0.015 µg/mL. For the same compound, the MIC in the experiment on Cryptococcus neoformans [9] turned out to be 0.5 µg/mL (≈ 1.43 µM); in the experiment on Cryptococcus neoformans [10] it was 0.03 µg/mL (≈ 0.0859 µM); against Cryptococcus neoformans [11], 0.25 µg/mL (≈ 0.716 µM).
